Test results from ChEMBL document CHEMBL5634152, “The discovery of water-soluble indazole derivatives as potent microtubule polymerization inhibitors” (Eur J Med Chem, 2023).
Values after ≈ are worked out from the molar mass of the structure shown. Active and inactive are the calls of the source. No cut-off for these calls is given here.

Experiments:
A549 [1] = assay: cells; details: Homo sapiens
Description: Antiproliferative activity against human A549 cells assessed as cell growth inhibition incubated for72 hrs by MTT assay

Huh-7 = assay: cells; details: Homo sapiens
Description: Antiproliferative activity against human Huh-7 cells assessed as cell growth inhibition incubated for72 hrs by MTT assay

T-24 = assay: cells; details: Homo sapiens
Description: Antiproliferative activity against human T-24 cells assessed as cell growth inhibition incubated for72 hrs by MTT assay

A549/TR = assay: Antiproliferative activity against human A549/Taxol cells assessed as cell growth inhibition incubated for72 hrs by MTT assay; assay type: functional, cell-based
[2] = Resistance index, ratio of IC50 for human A549/Taxol cells to IC50 for human A549 cells; assay type: functional
[3] = Aqueous solubility of compound in pH 7.4 at 10 mg/ml by HPLC analysis; assay type: physicochemical; details: buffer
[4] = Lipophilicity, logP of compound in n-octanol-water at 5 mg/ml incubated for 8 hrs by HPLC analysis; assay type: physicochemical
Sus scrofa = organism: Sus scrofa; assay: Inhibition of pig brain tubulin polymerization by absorbance based assay; assay type: tissue-based; details: dose <= 6.0 µM
[5] = Inhibition of pig brain tubulin polymerization measured after 20 mins by absorbance based assay; assay type: tissue-based, Sus scrofa
Tubulin (Homo sapiens) [6] = molecular target: T1, Tubulin (Homo sapiens) (UniProt P68371+Q9H4B7+P0DPH7+P68366+Q13509+Q71U36+P04350+Q3ZCM7+P07437+P68363+Q9BQE3+Q6PEY2+Q13885+Q9BVA1+Q9BUF5); assay: Inhibition of tubulin polymerization in human A549 cells assessed as disruption of microtubule aggregation incubated for 24 hrs by immunofluorescence based analysis; assay type: cell-based; details: dose 12.5-25 nM
Tubulin (Homo sapiens) [7] = molecular target: T1, Tubulin (Homo sapiens); assay: Inhibition of tubulin polymerization in human A549 cells assessed as decrease in spindle formation incubated for 24 hrs by immunofluorescence based analysis; assay type: cell-based; details: dose 12.5-25 nM
Tubulin (Homo sapiens) [8] = molecular target: T1, Tubulin (Homo sapiens); assay: Binding affinity to tubulin polymerization in human A549 cells assessed as N,N'-ethylene- bis(iodoacetamide)/beta-tubulin adduct formation at 5 uM incubated for 2 hrs by chemiluminescence based assay; assay type: cell-based
Tubulin (Homo sapiens) [9] = molecular target: T1, Tubulin (Homo sapiens); assay: Binding affinity to tubulin polymerization at colchicine-binding site in human A549 cells assessed as N,N'-ethylene- bis(iodoacetamide)/beta-tubulin adduct formation incubated for 2 hrs by chemiluminescence based assay; assay type: cell-based; details: dose 0.1-25 µM
A549 [10] = assay: Induction of cell cycle arrest at G1 phase in human A549 cells at 12.5 nM incubated for 24 hrs by flow cytometry (reference value: 71.30 %); assay type: functional
A549 [11] = assay: Induction of cell cycle arrest at S phase in human A549 cells at 12.5 nM incubated for 24 hrs by flow cytometry (reference value: 24.86 %); assay type: functional
A549 [12] = assay: Induction of cell cycle arrest at G2/M phase in human A549 cells at 12.5 nM incubated for 24 hrs by flow cytometry (reference value: 3.84 %); assay type: functional
A549 [13] = assay: Induction of cell cycle arrest at G1 phase in human A549 cells at 25 nM incubated for 24 hrs by flow cytometry (reference value: 71.30 %); assay type: functional
A549 [14] = assay: Induction of cell cycle arrest at S phase in human A549 cells at 25 nM incubated for 24 hrs by flow cytometry (reference value: 24.86 %); assay type: functional
A549 [15] = assay: Induction of cell cycle arrest at G2/M phase in human A549 cells at 25 nM incubated for 24 hrs by flow cytometry (reference value: 3.84 %); assay type: functional
A549 [16] = assay: Induction of apoptosis in human A549 cells assessed as viable cells at 12.5 nM incubated for 24 hrs by Annexin V/7-Aad staining based flow cytometry (reference value: 93.63 %); assay type: functional; details: read-out: Activity
A549 [17] = assay: Induction of apoptosis in human A549 cells assessed as early apoptotic cells at 12.5 nM incubated for 24 hrs by Annexin V/7-Aad staining based flow cytometry (reference value: 1.05 %); assay type: functional
A549 [18] = assay: Induction of apoptosis in human A549 cells assessed as late apoptotic cells at 12.5 nM incubated for 24 hrs by Annexin V/7-Aad staining based flow cytometry (reference value: 3.20 %); assay type: functional
A549 [19] = assay: Induction of apoptosis in human A549 cells assessed as necrotic cells at 12.5 nM incubated for 24 hrs by Annexin V/7-Aad staining based flow cytometry (reference value: 2.13 %); assay type: functional
A549 [20] = assay: Induction of apoptosis in human A549 cells assessed as viable cells at 25 nM incubated for 24 hrs by Annexin V/7-Aad staining based flow cytometry (reference value: 93.63 %); assay type: functional; details: read-out: Activity
A549 [21] = assay: Induction of apoptosis in human A549 cells assessed as early apoptotic cells at 25 nM incubated for 24 hrs by Annexin V/7-Aad staining based flow cytometry (reference value: 1.05 %); assay type: functional
A549 [22] = assay: Induction of apoptosis in human A549 cells assessed as late apoptotic cells at 25 nM incubated for 24 hrs by Annexin V/7-Aad staining based flow cytometry (reference value: 3.20 %); assay type: functional
A549 [23] = assay: Induction of apoptosis in human A549 cells assessed as necrotic cells at 25 nM incubated for 24 hrs by Annexin V/7-Aad staining based flow cytometry (reference value: 2.13 %); assay type: functional
A549 [24] = assay: Induction of apoptosis in human A549 cells assessed as viable cells at 50 nM incubated for 24 hrs by Annexin V/7-Aad staining based flow cytometry (reference value: 93.63 %); assay type: functional; details: read-out: Activity
A549 [25] = assay: Induction of apoptosis in human A549 cells assessed as early apoptotic cells at 50 nM incubated for 24 hrs by Annexin V/7-Aad staining based flow cytometry (reference value: 1.05 %); assay type: functional
A549 [26] = assay: Induction of apoptosis in human A549 cells assessed as late apoptotic cells at 50 nM incubated for 24 hrs by Annexin V/7-Aad staining based flow cytometry (reference value: 3.20 %); assay type: functional
A549 [27] = assay: Induction of apoptosis in human A549 cells assessed as necrotic cells at 50 nM incubated for 24 hrs by Annexin V/7-Aad staining based flow cytometry (reference value: 2.13 %); assay type: functional
A549 [28] = assay: Inhibition of cell migration in human A549 cells at 12.5 nM incubated for 24 hrs by wound healing assay relative to control; assay type: functional
A549 [29] = assay: Inhibition of cell migration in human A549 cells at 25 nM incubated for 24 hrs by wound healing assay relative to control; assay type: functional
A549 [30] = assay: Inhibition of cell migration in human A549 cells at 50 nM incubated for 24 hrs by wound healing assay relative to control; assay type: functional
A549 [31] = assay: Antitumor activity against human A549 cells xenografted in Balb/c nude mouse assessed as tumor growth inhibition at 25 mg/kg, IG qd for 21 days relative to control; assay type: functional; details: A549, po, 504 h, time 21 day, read-out: TGI
[32] = Toxicity in Balb/c nude mouse xenografted with human A549 cells assessed as body weight loss at 25 mg/kg, IG qd for 21 days; assay type: organism-based; details: in vivo, po, 504 h, time 21 day
[33] = Toxicity in Balb/c nude mouse xenografted with human A549 cells assessed as damage in liver at 25 mg/kg, IG qd for 21 days by H and E staining based analysis; assay type: organism-based; details: in vivo, po, 504 h, time 21 day
[34] = Toxicity in Balb/c nude mouse xenografted with human A549 cells assessed as damage in kidney at 25 mg/kg, IG qd for 21 days by H and E staining based analysis; assay type: organism-based; details: in vivo, po, 504 h, time 21 day
[35] = Toxicity in Balb/c nude mouse xenografted with human A549 cells assessed as damage in spleen at 25 mg/kg, IG qd for 21 days by H and E staining based analysis; assay type: organism-based; details: in vivo, po, 504 h, time 21 day

With `COc1cc(-n2ncc3ccc(-c4ccc5c(c4)CCO5)cc32)cc(OC)c1OC` the IC50 (A549 [1]) was 98 nM, the IC50 (Huh-7) was 79 nM and the IC50 (T-24) was 110 nM.

With `COc1cc(-n2ncc3ccc(-c4ccncc4)cc32)cc(OC)c1OC` the IC50 (A549 [1]) was 15200 nM, the IC50 (Huh-7) was 9220 nM and the IC50 (T-24) was 16400 nM.

In the case of `COc1cc(-n2ncc3ccc(-c4ccc(C)nc4)cc32)cc(OC)c1OC.Cl`, the IC50 (A549/TR) is reported as 33 nM, the “Ratio IC50” value [2] is reported as 1.2 and the solubility [3] is reported as 0.149 mg/mL. For the same compound, the logP at 8 h [4] was 1.8, the inhibition (Sus scrofa) was “Dose-Dependent Effect” and the IC50 [5] was 1750 nM. The inhibition (Tubulin (Homo sapiens) [6]) was “Dose-Dependent Effect”, the inhibition (Tubulin (Homo sapiens) [7]) was “Dose-Dependent Effect” and the Activity (Tubulin (Homo sapiens) [8]) was “Active”. The Activity (Tubulin (Homo sapiens) [9]) was “Dose-Dependent Effect”, the Activity (A549 [10]) was 68.78% and the Activity (A549 [11]) was 18.11%. For the same compound, the Activity (A549 [12]) was 13.1%, the Activity (A549 [13]) was 3.04% and the Activity (A549 [14]) was 7.88%. It also gave an Activity (A549 [15]) of 89.07%, a viability at 0.0125 µM (A549 [16]) of 92.3% and an Activity (A549 [17]) of 3.02%. The Activity (A549 [18]) was 3.28%, the Activity (A549 [19]) was 1.44% and the viability at 0.025 µM (A549 [20]) was 69.1%. For the same compound, the Activity (A549 [21]) was 16.41%, the Activity (A549 [22]) was 12.23% and the Activity (A549 [23]) was 2.26%. The viability at 0.05 µM (A549 [24]) was 56.6%, the Activity (A549 [25]) was 26.53% and the Activity (A549 [26]) was 15.65%. The Activity (A549 [27]) was 1.19%, the inhibition at 0.0125 µM (A549 [28]) was 32.3% and the inhibition at 0.025 µM (A549 [29]) was 52.2%. The inhibition at 0.05 µM (A549 [30]) was 83.9%, the inhibition in vivo at 25 mg/kg (A549 [31]) was 64.1% and the Activity [32] was “Non-Toxic”. For the same compound, the Activity [33] was “Non-Toxic”, the Activity [34] was “Non-Toxic” and the Activity [35] was “Non-Toxic”. For the same compound, the IC50 (A549 [1]) was 27 nM, the IC50 (Huh-7) was 30 nM and the IC50 (T-24) was 46 nM.

In the case of `COc1cc(-n2ncc3ccc(-c4ccccc4)cc32)cc(OC)c1OC`, the IC50 (A549 [1]) is reported as 52 nM, the IC50 (Huh-7) is reported as 42 nM and the IC50 (T-24) is reported as 80 nM.

For `COc1ccc2c(Nc3cc(OC)c(OC)c(OC)c3)n[nH]c2c1`, the IC50 (A549/TR) was 91 nM, the “Ratio IC50” value [2] was 1.5 and the solubility ([3]; read-out: solubility) was 0.00348 mg/mL (≈ 10.6 µM). For the same compound, the logP at 8 h [4] was 3.7, the inhibition in vivo at 25 mg/kg (A549 [31]) was 47.8% and the IC50 (A549 [1]) was 60 nM. The IC50 (Huh-7) was 54 nM and the IC50 (T-24) was 130 nM.

`CCOc1ccc(-c2ccc3cnn(-c4cc(OC)c(OC)c(OC)c4)c3c2)cc1` gave an IC50 (A549 [1]) of 1450 nM, an IC50 (Huh-7) of 3730 nM and an IC50 (T-24) of 2280 nM.

Compound `COc1ccc(-n2ncc3ccc(-c4cc(OC)c(OC)c(OC)c4)cc32)cn1` has an IC50 (A549 [1]) greater than 25000 nM, an IC50 (Huh-7) greater than 25000 nM and an IC50 (T-24) greater than 25000 nM.

With `COc1cc(-n2ncc3ccc(-c4ccc5[nH]ccc5c4)cc32)cc(OC)c1OC` the IC50 (A549 [1]) was 120 nM, the IC50 (Huh-7) was 140 nM and the IC50 (T-24) was 170 nM.

With `COc1cc(-c2ccc3c(C)nn(-c4ccc5c(c4)CCO5)c3c2)cc(OC)c1OC` the IC50 (A549 [1]) was 5300 nM, the IC50 (Huh-7) was 1450 nM and the IC50 (T-24) was 4820 nM.

In the case of `COc1ccc(-n2nc(C)c3ccc(-c4cc(OC)c(OC)c(OC)c4)cc32)cn1`, the IC50 (A549 [1]) is reported as greater than 25000 nM, the IC50 (Huh-7) is reported as greater than 25000 nM and the IC50 (T-24) is reported as greater than 25000 nM.

In the case of `COc1cc(-n2ncc3ccc(-c4ccc(C)cc4)cc32)cc(OC)c1OC`, the IC50 (A549 [1]) is reported as 45 nM, the IC50 (Huh-7) is reported as 51 nM and the IC50 (T-24) is reported as 92 nM.

Work on `COc1cc(-n2ncc3ccc(-c4ccc5c(ccn5C)c4)cc32)cc(OC)c1OC` yielded an IC50 (A549 [1]) of 63 nM, an IC50 (Huh-7) of 73 nM and an IC50 (T-24) of 120 nM.

`COc1ccc(-c2ccc3c(C)nn(-c4cc(OC)c(OC)c(OC)c4)c3c2)cc1` showed an IC50 (A549 [1]) of 490 nM, an IC50 (Huh-7) of 110 nM and an IC50 (T-24) of 280 nM.

`COc1ccc(-n2ncc3ccc(-c4cc(OC)c(OC)c(OC)c4)cc32)cc1` gave an IC50 (A549 [1]) greater than 25000 nM, an IC50 (Huh-7) greater than 25000 nM and an IC50 (T-24) greater than 25000 nM.
